Source: patent US8466089B2, “Pyrazole compounds, process for their production and herbicides containing them” (Ishihara Sangyo Kaisha, Ltd., priority 2008, dated 2013)
Read-outs that look alike come from different tables or passages of the source.

How the values were obtained:
Assay type in all cases: in vivo
[1] = system: soybean (Glycine max Merr.); test: Test Example 2, soil application on the day after sowing; details: 21st to 22nd day after application, visual, read-out: Growth inhibition rate (%) Soybean
Procedure, shortened: (§1)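 Soil treatment one day post-sowing in upland soil pots, active ingredient at prescribed amounts in 500 L/ha spray water; percent inhibition versus untreated scored visually on day 21–22.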

[2] = system: velvetleaf (Abutilon theophrasti MEDIC.); test: as above; details: 21st to 22nd day after application, visual, read-out: Growth inhibition rate (%) Velvetleaf
Procedure, shortened: as §1

[3] = system: green foxtail (Setaria viridis L.); test: as above; details: 21st to 22nd day after application, visual, read-out: Growth inhibition rate (%) Green foxtail
Procedure, shortened: as §1

[4] = system: crabgrass (Digitaria sanquinalis L.); test: as above; details: 21st to 22nd day after application, visual, read-out: Growth inhibition rate (%) Crabgrass
Procedure, shortened: as §1

[5] = system: redroot pigweed (Amaranthus retroflexus L.); test: as above; details: 21st to 22nd day after application, visual, read-out: Growth inhibition rate (%) Redroot pigweed
Procedure, shortened: as §1

[6] = system: barnyardgrass (Echinochloa crus-galli L.); test: as above; details: 21st to 22nd day after application, visual, read-out: Growth inhibition rate (%) Barnyardgrass
Procedure, shortened: as §1

[7] = system: prickly sida (Sida spinosa L.); test: as above; details: 21st to 22nd day after application, visual, read-out: Growth inhibition rate (%) Prickly sida
Procedure, shortened: as §1

[8] = system: soybean (Glycine max Merr.); test: Test Example 1, foliar treatment in upland pots; details: 20th to 22nd day after application, visual, read-out: Growth inhibition rate (%) Soybean
Procedure, shortened: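 Compound applied to leaves of pot-grown corn (2.0–3.3 leaf), soybean (primary leaf to 0.3 leaf), rice (1.2–2.5 leaf) and green foxtail (1.5–3.0 leaf); carrier 500 L/ha water, 0.1 vol% spreader. Percent inhibition assessed visually after 20–22 days.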

wheat (Triticum spp.) = test: Test Example 1, foliar treatment in upland pots; details: 20th to 22nd day after application, visual, read-out: Growth inhibition rate (%) Wheat
[9] = system: prickly sida (Sida spinosa L.); test: Test Example 1, foliar treatment in upland pots; details: 20th to 22nd day after application, visual, read-out: Growth inhibition rate (%) Prickly sida
[10] = system: sorgo (Sorghum bicolor Moench) (var.: Lucky Sorgo); test: Test Example 6, soil column downward movement, sorgo bioassay; details: 14th day after sowing
Description: Soil (sterilized soil:sand=3:1) was packed (4 L) into a column (9.5 cm in diameter×40 cm in height, application area: 0.007 m^2), and tap water was dropped from above by a Peristaltic pump before application of the herbicide for the purpose of maintaining the soil moisture to be uniform. Then, 10 mL of a spray solution prepared so that each agent (Compound No. 2-1, the above Reference Compounds 1 and 2) would be at a concentration corresponding to 250 g/ha was dropwise applied by a pipette. After application, water was dropped again at a rate of 400 mL/hr for about 3 hours by means of a Peristaltic pump. After the dropping, the column was left to stand for 1 day, and then the column was vertically evenly divided and seeds of sorgo (Sorghum bicolor Moench) (var.: Lucky Sorgo) were sown in a row. On the 14th day after sowing, the state of growth of the plant was visually observed at 3 cm intervals from the application point of the agent, whereby the germination and the degree of growth were evaluated by a growth inhibition rate (%) of 0 (equivalent to the non-treated area) to 100% (complete kill) to obtain the results in Table 17.
From the above results, the growth inhibition rates of Reference Compounds No. 1 and No. 2 are observed in depths deeper than that of Compound No. 2-1. […] Whereas, Compound No. 2-1 stayed at a shallow portion of soil (in a layer of from 0 to 9 cm).

Compound: CCn1ncc(C(=O)c2ccc(S(C)(=O)=O)c(OCCOC)c2C)c1OC(C)OC(=O)OC (centres unmarked) [Compound No. 2-1, 1-(1-Ethyl-4-(3-(2-methoxyethoxy)-2-methyl-4-(methylsulfonyl)benzoyl)-1H-pyrazol-5-yloxy)ethyl methyl carbonate]
- inhibition at 250 g/ha [1]: 0%
- inhibition at 250 g/ha [2]: 100%
- inhibition at 250 g/ha [3]: 100%
- inhibition at 250 g/ha [4]: 100%
- inhibition at 250 g/ha [5]: 100%
- inhibition at 250 g/ha [6]: 95%
- inhibition at 250 g/ha [7]: 90%
- inhibition at 7 g/ha [8]: 95%
- inhibition at 7 g/ha (wheat (Triticum spp.)): 0%
- inhibition at 7 g/ha [9]: 60%
- inhibition at 250 g/ha ([10]; depth 0-3 cm, read-out: Growth inhibition rate (%) against sorgo, Depth (cm) from the applied surface 0-3): 70%
- inhibition at 250 g/ha ([10]; depth 3-6 cm, read-out: Growth inhibition rate (%) against sorgo, Depth (cm) from the applied surface 3-6): 19%
- inhibition at 250 g/ha ([10]; depth 6-9 cm, read-out: Growth inhibition rate (%) against sorgo, Depth (cm) from the applied surface 6-9): 10%
- inhibition at 250 g/ha ([10]; depth 9-12 cm, read-out: Growth inhibition rate (%) against sorgo, Depth (cm) from the applied surface 9-12): 5%
- inhibition at 250 g/ha ([10]; depth 12-15 cm, read-out: Growth inhibition rate (%) against sorgo, Depth (cm) from the applied surface 12-15): 3%
- inhibition at 250 g/ha ([10]; depth 15-18 cm, read-out: Growth inhibition rate (%) against sorgo, Depth (cm) from the applied surface 15-18): 3%
- inhibition at 250 g/ha ([10]; depth 18-21 cm, read-out: Growth inhibition rate (%) against sorgo, Depth (cm) from the applied surface 18-21): 2%
- inhibition at 250 g/ha ([10]; depth 21-24 cm, read-out: Growth inhibition rate (%) against sorgo, Depth (cm) from the applied surface 21-24): 1%
- inhibition at 250 g/ha ([10]; depth 24-27 cm, read-out: Growth inhibition rate (%) against sorgo, Depth (cm) from the applied surface 24-27): 0%
- inhibition at 250 g/ha ([10]; depth 27-30 cm, read-out: Growth inhibition rate (%) against sorgo, Depth (cm) from the applied surface 27-30): 0%
